According to patent US7416848B2, “DNA encoding SNORF25 receptor” (H. Lundbeck A/S, priority 1999, dated 2008):

Columns and labels:
dopamine D5 receptor = molecular target: T1, dopamine D5 receptor (Homo sapiens, UniProt P21918); assay: cAMP in Cos-7 cells transfected with dopamine D5 receptor; type: cell-based; conditions: 10 μM, dopamine D5 (FIG. 7)
T1 construct: expressed in transfected cells; host or cells: Cos-7 cells
Procedure: (§1) A typical protocol for the electroporation method as applied to Cos-7 cells is described as follows. Cells to be used for transfection are split 24 hours prior to the transfection to provide flasks which are subconfluent at the time of transfection. The cells are harvested by trypsinization resuspended in their growth media and counted. 5×10^6 cells are suspended in 300 μl of DMEM and placed into an electroporation cuvette. 8 μg of receptor DNA plus 8 μg of any additional DNA needed (e.g. G protein expression vector, reporter construct, antibiotic resistance marker, mock vector, etc.) is added to the cell suspension, the cuvette is placed into a BioRad Gene Pulser and subjected to an electrical pulse (Gene Pulser settings: 0.25 kV voltage, 950 μF capacitance). Following the pulse, 800 μl of complete DMEM is added to each cuvette and the suspension transferred to a sterile tube. Complete medium is added to each tube to bring the final cell concentration to 1×10^5 cells/100 μl. […]
(§2) The receptor-mediated stimulation or inhibition of cyclic AMP (cAMP) formation may be assayed in cells expressing the receptors. […] The plates are stored at 4° C. for 15 min, and the cAMP content in the stopping solution is measured by radioimmunoassay. Radioactivity may be quantified using a gamma counter equipped with data reduction software. […]

[1] = test system: mock-transfected CHO cells; assay: cAMP and IP release in mock-transfected CHO cells; type: cell-based, Chinese hamster
Procedure: CHO cells are grown on 150 mm plates in HAM's F-12 medium with supplements (10% bovine calf serum, 4 mM L-glutamine and 100 units/ml penicillin/100 μg/ml streptomycin) at 37° C., 5% CO2. Stock plates of CHO cells are trypsinized and split 1:8 every 3–4 days.
as §1, with “capacitance).” for “capacitance). Following the pulse, 800 μl of complete DMEM is added to each cuvette and the suspension transferred to a sterile tube. Complete medium is added to each tube to bring the final cell concentration to 1×10^5 cells/100 μl.”
as §2

SNORF25 = molecular target: T2, SNORF25 (Homo sapiens, UniProt Q8TDV5); assay: CFTR Cl- currents in Xenopus oocytes co-injected with SNORF25 and CFTR mRNA; type: cell-based; design: from linearized plasmids or PCR products containing the complete coding region of the genes; expressed in transfected cells; host or cells: Xenopus laevis oocytes injected with SNORF25 mRNA (with or without CFTR mRNA)
T2 sequence (Q8TDV5 1-335): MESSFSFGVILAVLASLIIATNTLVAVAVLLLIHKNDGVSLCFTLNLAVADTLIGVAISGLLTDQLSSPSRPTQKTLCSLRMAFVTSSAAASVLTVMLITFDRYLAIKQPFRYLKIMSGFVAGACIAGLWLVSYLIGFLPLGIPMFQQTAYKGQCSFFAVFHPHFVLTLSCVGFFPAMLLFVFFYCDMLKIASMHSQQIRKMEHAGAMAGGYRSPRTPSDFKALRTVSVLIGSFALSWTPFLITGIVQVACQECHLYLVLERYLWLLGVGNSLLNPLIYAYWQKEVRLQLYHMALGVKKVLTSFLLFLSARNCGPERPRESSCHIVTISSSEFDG
Procedure: Oocytes are harvested from Xenopus laevis and injected with mRNA transcripts as previously described (Quick and Lester, 1994; Smith et al., 1997). The test receptor of this invention and Gα subunit RNA transcripts are synthesized using the T7 polymerase (“Message Machine,” Ambion) from linearized plasmids or PCR products containing the complete coding region of the genes. Oocytes are injected with 10 ng synthetic receptor RNA and incubated for 3–8 days at 17 degrees. Three to eight hours prior to recording, oocytes are injected with 500 pg promiscuous Gα subunits mRNA in order to observe coupling to Ca^++ activated Cl^− currents.
Each of the compounds was tested at 10 μM. Oocytes expressing SNORF25 generated inward Cl^− currents, consistent with CFTR activation, in response to all four of the ligands.
The activity of SNORF25 was therefore tested in oocytes co-injected with mRNA encoding SNORF25 and mRNA encoding CFTR. In 17 out of 39 of these oocytes an inward Cl^− current (105±20 nA) was measured in response to the application of 10 μM all-trans-retinoic acid (See FIGS. 9A–9C and 10).

SNORF25 receptor = molecular target: T3, SNORF25 receptor (UniProt Q7TQN8); assay: cAMP release in Cos-7 cells transiently transfected with SNORF25; type: cell-based; conditions: SNORF25 transiently transfected Cos-7 cells (FIG. 8)
T3 construct: Emax of cAMP response
T3 sequence (Q7TQN8 1-468): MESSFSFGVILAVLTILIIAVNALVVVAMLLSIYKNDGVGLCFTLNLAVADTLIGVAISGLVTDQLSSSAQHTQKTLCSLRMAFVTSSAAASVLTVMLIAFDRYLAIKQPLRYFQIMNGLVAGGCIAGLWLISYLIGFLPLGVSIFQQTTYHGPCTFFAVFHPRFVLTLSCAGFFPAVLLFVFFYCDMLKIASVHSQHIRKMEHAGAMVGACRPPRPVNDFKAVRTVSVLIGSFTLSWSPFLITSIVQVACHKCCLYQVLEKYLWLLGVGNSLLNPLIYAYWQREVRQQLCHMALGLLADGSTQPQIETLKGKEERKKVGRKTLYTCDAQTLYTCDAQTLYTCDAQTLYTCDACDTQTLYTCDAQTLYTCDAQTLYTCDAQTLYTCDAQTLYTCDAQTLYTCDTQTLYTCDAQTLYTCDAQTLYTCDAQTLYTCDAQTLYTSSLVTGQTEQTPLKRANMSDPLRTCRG
Procedure: COS-7 cells are grown on 150 mm plates in DMEM with supplements (Dulbecco's Modified Eagle Medium with 10% bovine calf serum, 4 mM glutamine, 100 units/ml penicillin/100 μg/ml streptomycin) at 37° C., 5% CO2. Stock plates of COS-7 cells are trypsinized and split 1:6 every 3–4 days.
as §1, with “capacitance).” for “capacitance). Following the pulse, 800 μl of complete DMEM is added to each cuvette and the suspension transferred to a sterile tube. Complete medium is added to each tube to bring the final cell concentration to 1×10^5 cells/100 μl.”
as §2

T1 sequence (P21918 whole entry): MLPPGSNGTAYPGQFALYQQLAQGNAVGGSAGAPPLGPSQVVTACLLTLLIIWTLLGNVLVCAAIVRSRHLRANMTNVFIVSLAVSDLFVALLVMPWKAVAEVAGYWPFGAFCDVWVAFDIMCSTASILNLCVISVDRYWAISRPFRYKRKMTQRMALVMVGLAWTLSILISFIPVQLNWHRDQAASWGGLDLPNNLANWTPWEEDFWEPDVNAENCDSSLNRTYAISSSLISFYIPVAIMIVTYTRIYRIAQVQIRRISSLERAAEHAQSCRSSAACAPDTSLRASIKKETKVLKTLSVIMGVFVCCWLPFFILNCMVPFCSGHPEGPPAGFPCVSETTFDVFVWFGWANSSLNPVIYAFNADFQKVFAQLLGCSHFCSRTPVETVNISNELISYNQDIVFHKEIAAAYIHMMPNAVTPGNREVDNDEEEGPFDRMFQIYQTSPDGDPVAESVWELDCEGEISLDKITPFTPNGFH

CC1=C(/C=C/C(C)=C/C=C/C(C)=C/C(=O)O)C(C)(C)CCC1 [ATRA, all-trans-retinoic acid]
cAMP response (dopamine D5 receptor): no response
cAMP and IP release in mock-transfected CHO cells [1]: without affecting these parameters
inward Cl- current amplitude (SNORF25; 10 μM, oocytes with SNORF25 and CFTR mRNA): 105±20 nA
delay for activation of CFTR (SNORF25; SNORF25-expressing oocytes): ~10 s
Emax of cAMP response (SNORF25 receptor): 200–300%
